# According to paper PMC7822874, “Chemoprotective antimalarials identified through quantitative high-throughput screening of Plasmodium blood and liver stage parasites” (Scientific Reports, 2021):
# System: Plasmodium falciparum Dd2 asexual blood stage parasites
# Test: microbe, parasite or virus in culture
# Design: species or system Plasmodium falciparum Dd2 in human erythrocytes; single determination (one 11-point concentration-response curve)
# Details: Plasmodium falciparum, DD2, Erythrocyte, 72 h; read-out: AC50
row,SMILES,AC50 [µM]
1,O=C(NCCc1cccnc1)c1ccc(-c2nnc3ccc(NC(=O)C4CCC4)cn23)cc1 [NCGC00429899-01],6.68
2,O=C(NCCc1ccncc1)c1ccc(-c2nnc3ccc(NC(=O)C4CCC4)cn23)cc1 [NCGC00429902-01],2.99
3,O=C(NCCN1CCCCC1)c1ccc(-c2nnc3ccc(NC(=O)C4CCC4)cn23)cc1 [NCGC00429914-01],13.3
4,CCOC(=O)C1(Cc2cccc(Cl)c2)CCCNC1 (stereo not shown) [NCGC00430131-01],8.41
5,CCOC(=O)C1CCN(C(=O)c2cc3c(n2C)CCN(Cc2ccccc2)C3)CC1 [NCGC00430564-01],10.6
6,COc1cccc(CN2CCc3c(cc(C(=O)NCc4ccccn4)n3C)C2)c1 [NCGC00430584-01],15
7,COc1ccc(CC(=O)NCc2cc(C)cc3c(C)c(C)[nH]c23)c(OC)c1 [NCGC00431513-01],8.41
8,Cc1cccc(-c2cc(C3CCN([S+](=O)([O-])c4cccc(C#N)c4)CC3)[nH]n2)c1 [NCGC00433033-01],15
9,CN1CCN(Cc2ccccc2Oc2ccc(C(F)(F)F)cn2)CC1 [NCGC00433787-01],0.531
10,CC(=O)Nc1ccc(NC(=O)c2c(C)oc3ccn(Cc4ccc(F)cc4)c(=O)c23)cc1 [NCGC00433889-01],10.6
11,COc1ccc(CC(=O)N2CCC(Oc3ncccc3C(=O)N3CCCCC3)C2)cc1 (stereo not shown) [NCGC00434230-01],9.44
12,NCCc1cccc(CN2CCCC(COc3ccccc3F)C2)c1 (stereo not shown) [NCGC00434821-01],2.66
13,c1cnc(N2CCOCC2)c(OC2CCNC2)n1 (stereo not shown) [NCGC00434832-01],7.5
14,Cc1ccc2c(C)c(C(=O)N3CCCC3c3nc(C(C)C)no3)oc2c1C (stereo not shown) [NCGC00435047-01],6.68
15,C=CCCC(CN1CCCC1)Oc1ccc(C(=O)N2CCCC2)cn1 (stereo not shown) [NCGC00435125-01],13.3
16,COc1cc(=O)n2c(c1C(=O)Nc1ccc(N(C)C)cc1)CCCC2 [NCGC00435410-01],10.6
17,COc1ccc(-c2cc(N3CCN(C(=O)c4c[nH]c5ccccc45)CC3)[nH]n2)cc1 [NCGC00436860-01],15
18,COc1cc(C(=O)NC2CCN(c3cc(-c4ccccc4)n[nH]3)CC2)cc(OC)c1OC [NCGC00436906-01],5.96
19,CN1CCN(C(=O)C2(N(C)CCc3ccccc3)Cc3ccccc3C2)CC1 [NCGC00438807-01],2.66
20,O=C(NCCN1CCCC1)C1CN([S+](=O)([O-])c2cccs2)CC12CCCCC2 (stereo not shown) [NCGC00439935-01],13.3
21,COc1ccc(C)cc1NC(=O)N1CCCC2(C1)Nc1cccnc1N=C2NC1CCCC1 (stereo not shown) [NCGC00440441-01],6.68

row,SMILES,AC50 [µM]
1,CC(C)Nc1nccc(C2(c3ccccc3Cl)CCNCC2)n1 [NCGC00440810-01],9.44
2,CCCNC(=O)N1CC(Oc2cccc(-c3nc(-c4ccccc4)no3)c2)C1 [NCGC00441277-01],13.3
3,CCn1ccc2ccc(CN3CCCC(O)(CN4CCCC4)C3)cc21 (stereo not shown) [NCGC00441341-01],7.5
4,CCn1cc(CN2CCCC23CCN(c2cc(C)nc4ccccc24)CC3)c(C)n1 [NCGC00442249-01],4.22
5,O=C(c1cccs1)N1CCC(O)(c2ccccc2)[C@H](N2CCCC2)C1 (stereo partly shown) [NCGC00442580-01],9.44
6,O[C@]1(c2ccccc2)CCN(Cc2ccncc2)C[C@H]1N1CCCC1 [NCGC00442600-01],9.44
7,O[C@]1(c2ccccc2)CCN(Cc2ccco2)C[C@H]1N1CCCC1 [NCGC00442602-01],8.41
8,Cc1nn(CCC(=O)N[C@H]2CC[C@H]2NC2CCCCC2)c(C)c1C [NCGC00442733-01],6.68
9,COc1ccccc1C(=O)N1CCC2(CC1)c1nccn1-c1ccccc1CN2CC(C)C [NCGC00442752-01],11.9
10,CCn1ncc(CN2CCCC23CCN(c2cc(C)nc4ccccc24)CC3)c1C [NCGC00442843-01],5.31
11,CC(C)n1cc(CN2CCCC23CCN(c2ccc(C(F)(F)F)cn2)CC3)cn1 [NCGC00442913-01],9.44
12,Cc1ccc(O)c(CN2CCCC(c3nc(CC(C)C)no3)C2)c1 (stereo not shown) [NCGC00443337-01],9.44
13,CN1CCCC(CN(CCc2ccccc2)C(=O)c2cc(C#N)cn2C)C1 (stereo not shown) [NCGC00443707-01],9.44
14,CN(C)C(C(=O)N1CCC(F)(F)CC1)c1ccccc1F (stereo not shown) [NCGC00444487-01],15
15,Cc1ccc([S+](=O)([O-])N2CCC(OC3CCN(Cc4ccccc4)CC3)CC2)cc1C [NCGC00444948-01],15
16,Cc1ccc(NC(=O)N2CCC(OC3CCN([S+](C)(=O)[O-])CC3)CC2)cc1F [NCGC00445040-01],15
17,CC(C)[C@@H]1CN([S+](=O)([O-])c2ccc(Cl)cc2Cl)C[C@H]1N(C)C [NCGC00445159-01],6.68
18,CC(C)c1ccccc1NC(=O)Cn1cccc1-c1nc(-c2ccccc2)no1 [NCGC00445236-01],4.22
19,CC(C)c1ccccc1NC(=O)Cn1cccc1-c1nc(-c2ccc(F)cc2)no1 [NCGC00445438-01],2.99
20,COc1cccc(NC(=O)Cn2cccc2-c2nc(-c3ccc(OC)c(F)c3)no2)c1 [NCGC00445448-01],6.68
21,COc1ccc(NC(=O)Cn2cccc2-c2nc(-c3ccc(OC)c(F)c3)no2)cc1 [NCGC00445480-01],4.73

row,SMILES,AC50 [µM]
1,COc1ccc(-c2noc(-c3cccn3CC(=O)Nc3ccccc3C)n2)cc1F [NCGC00445484-01],5.31
2,COc1ccc(-c2noc(-c3cccn3CC(=O)Nc3ccc(C)cc3C)n2)cc1F [NCGC00445492-01],10.6
3,CC(=O)Nc1cccc(C(=O)N2CCC3(CC2)NC(c2ccc(C)cc2)=NO3)c1 [NCGC00446797-01],0.841
4,Cc1ccc(C)c(C(=O)N2CCC3(CC2)NC(c2ccc(Cl)cc2)=NO3)c1 [NCGC00447013-01],9.44
5,CC(C)(C)c1ccc(C(=O)N2CCN(C(=O)c3nnn4c3COC(c3ccccc3)C4)CC2)cc1 (stereo not shown) [NCGC00449161-01],10.6
6,CCOc1ccccc1C(=O)N1CCN(C(=O)c2nnn3c2COC(c2ccccc2)C3)CC1 (stereo not shown) [NCGC00449179-01],16.8
7,CC(C)(C)c1ccc(-c2noc(-c3ncn4c3COC(c3ccc(F)cc3)C4)n2)cc1 (stereo not shown) [NCGC00449976-01],15
8,Cc1ccc(-n2c(C3CCN(C(=O)COc4ccc(Cl)cc4)CC3)n[nH]c2=O)cc1 [NCGC00451295-01],10.6
9,COc1cccc([S+](=O)([O-])N2CCC3(CC2)CC(N(C)Cc2ccccc2)CCO3)c1 (stereo not shown) [NCGC00453781-01],8.41
10,Cc1cn2nc(C(=O)Nc3ccc(N(C)C)cc3)cc2c(N(C)Cc2ccccc2)n1 [NCGC00454159-01],15
11,CCOc1ccc(NC(=O)c2nnn3cc(C)[nH]c(=O)c23)cc1 [NCGC00454245-01],10.6
12,Cc1ccc(C2Cn3nnc(-c4noc(-c5n[nH]c6c5CCCC6)n4)c3CO2)cc1 (stereo not shown) [NCGC00454353-01],13.3
13,Cc1cc2nc3n(c(=O)c2n1CC(=O)Nc1ccccc1C(C)C)CCCCC3 [NCGC00455404-01],8.41
14,COc1ccc2[nH]cc(CCNC(=O)C3(Cc4ccccc4)CCCCC(=O)N3)c2c1 (stereo not shown) [NCGC00456177-01],5.96
15,COc1ccc(CCC(=O)N2Cc3ccccc3OC3(CCN(C)CC3)C2)cc1 [NCGC00456460-01],7.5
16,CN1CCC2(CC1)CN(C(=O)CCc1ccccc1)Cc1ccccc1O2 [NCGC00456463-01],6.68
17,CC(C)C(=O)N1Cc2ccccc2OC2(CCN(C(C)C)CC2)C1 [NCGC00456474-01],10.6
18,CC(C)N1CCC2(CC1)CN(C(=O)Cc1cccc(F)c1)Cc1ccccc1O2 [NCGC00456475-01],15
19,O=C(NCCCN1CCc2ccccc2C1)C1Cn2cccc2C(=O)N1Cc1ccccc1 (stereo not shown) [NCGC00456658-01],9.44
20,O=C(c1cccs1)N1CCCCCC1CN1CCCC1 (stereo not shown) [NCGC00456696-01],10.6
21,CC1CCN(CC2CCCCCN2C(=O)Cc2ccccc2)CC1 (stereo not shown) [NCGC00456721-01],9.44

row,SMILES,AC50 [µM]
1,CC1CCN(CC2CCCCCN2C(=O)NCc2ccc(F)cc2)CC1 (stereo not shown) [NCGC00456722-01],13.3
2,COc1cccc(CC(=O)N2CCCC(CN3CCCC3)CC2)c1 (stereo not shown) [NCGC00456752-01],15
3,CCC(C(=O)NCCn1ccn2nc(-c3ccc(OC)cc3)cc2c1=O)c1ccccc1 (stereo not shown) [NCGC00456905-01],15
4,O=C(Cc1ccc(Cl)cc1)NCc1nnc2cc(-c3nc(C4CC4)no3)ccn12 [NCGC00457746-01],7.5
5,CCn1cc(CN2CC(Oc3ccc(-c4noc(-c5ccncc5)n4)cc3)C2)cn1 [NCGC00458017-01],13.3
6,COc1ccc(CN2CC(Oc3ccccc3C(=O)NCc3ccccc3)C2)c(OC)c1 [NCGC00458086-01],10.6
7,COc1ccc(OC)c(CN2CC(Oc3ccccc3C(=O)NCc3ccccc3)C2)c1 [NCGC00458087-01],13.3
8,O=C(NCc1ccccc1)c1ccccc1OC1CN(Cc2ccc(O)c(F)c2)C1 [NCGC00458090-01],15
9,Cc1c(CN2CC(Oc3ccccc3C(=O)NCc3ccccc3)C2)cnn1C [NCGC00458092-01],4.22
10,c1ccc(-c2nc(-c3ccncc3)no2)c(OC2CCN(C3CCCC3)C2)c1 (stereo not shown) [NCGC00458106-01],15
11,O=C(c1ccccc1)N1CCC(Cc2nnc(-c3ccncc3)[nH]2)CC1 [NCGC00458326-01],15
12,Cc1ccc(OCc2nc(C3CCN(C(=O)c4c5c(nc6ccccc46)CCCC5)CC3)no2)cc1 [NCGC00459905-01],9.44
13,COc1cccc(C(=O)N2CCC(N3C[C@H](O)C[C@H]3C(=O)N3CCc4ccccc4C3)CC2)c1 [NCGC00460061-01],8.41
14,COc1cccc(C(=O)N2CCC(N3C[C@H](O)C[C@H]3C(=O)N3CC=C(c4ccccc4)CC3)CC2)c1 [NCGC00460071-01],9.44
15,COc1ccc(CN2CC3(CCN(C(=O)Nc4ccc(OC)c(F)c4)CC3)C2=O)cc1 [NCGC00460264-01],10.6
16,O=C(c1n[nH]c2ccccc12)N1CCCC1c1nc(CCOCC2CCOCC2)no1 (stereo not shown) [NCGC00460318-01],9.44
17,O=[S+]([O-])(c1cccnc1)N1CCC2(CC1)NCCc1c2[nH]c2ccccc12 [NCGC00460719-01],16.8
18,Cc1ccc(NC(=O)N2CCC(N3C(=O)C4(CCCCC4)C3c3ccncc3)CC2)cc1C (stereo not shown) [NCGC00461123-01],7.5
19,COCC1CN(Cc2cccc(C(F)(F)F)c2)CC12CCNCC2 (stereo not shown) [NCGC00461834-01],7.5
